The record followed here is patent US20180312493A1, “Antibiotic Compounds, Pharmaceutical Formulations Thereof And Methods And Uses Therefor” (Simon Fraser University, priority 2015, published 2018).

≈ marks a conversion by molar mass, not a printed value.

One test addresses T1, MRSA Pyk (Staphylococcus aureus, UniProt Q6GG09).
T1 construct: made in house; host or cells: E. coli BL-21 (DE3)
As to the kind of experiment: MRSA pyruvate kinase (PK) activity, continuous LDH-coupled assay. It counts as biochemical, methicillin resistant S. aureus (MRSA252). An excerpt:
Genomic DNA of MRSA strain Sanger 252 extracted using DNeasy Tissue Kit™ (Qiagen™) was used as a template to generate the His-tagged MRSA PK. Human cDNA from MCF-7 breast cancer cell line (courtesy of Dr. J Wong, BC Cancer Research Center (Vancouver, Canada)) was used as a template to generate the full-length human M2 PK enzyme. The following primer sets were used creating appropriate restriction sites (NdeI and XhoI sites underlined): For cloning of MRSA PK: M27F 5′-[…]-3′ and M27R 5′-[…]-3′, for cloning of human M2 PK isoform: hM2F 5′-[…]-3′ and hM2R 5′-[…]-3′. The resulting PCR fragments for each construct were cloned into the NdeI and XhoI unique sites of the bacterial expression vector pET-28a (+) (Novagen™). […] The sequence and the correct reading frame of all constructs were verified by sequencing. Human M1, R and L PK constructs in pET-28-a(+) vectors (courtesy of Dr. L. Cantley, Harvard Medical, School (Boston, USA)) were used to generate relevant recombinant His-tagged human PK isoforms.
MRSA and human constructs in pET-28a(+) were used to express relevant recombinant PK proteins in E. coli BL-21 (DE3). The proteins were expressed and purified using Ni-NTA agarose (Qiagen™) according to the manufacturer's protocol. Briefly, cells were grown to an absorbance of 0.4-0.5 at 600 nm in 2×YT medium, then induced with 0.1 mM IPTG for 3 h at 20° C. Cells were lysed by sonication on ice (3×10-s bursts with a 30-s recovery between bursts) in lysis buffer (0.2 mg/ml lysozyme, 50 mM Tris pH 7.5, 10 mM MgCl2, 200 mM NaCl, 100 mM KCl, 10% glycerol, 10 mM imidazole, 0.5% NP-40 and 1 mM DTT containing Complete™ protease inhibitor). Cell lysates were cleared by centrifugation (18,000×g in a Beckman™ JA-20 rotor) for 20 min at 4° C. and PK isoforms were purified by batch binding to Ni-NTA resin. The resins were then packed in columns (1×2 cm) and washed with 400 column volumes lysis buffer containing 30 mM imidazole. His-tagged PK isoforms were eluted with the same buffer containing 300 mM imidazole. The proteins were dialyzed overnight at 4° C. against 2000 volumes of ice-cold 30 mM Tris pH 7.5, 25 mM KCl, 5 mM MgCl2, 10% glycerol and 1 mM DTT to remove imidazole. All purification steps were done at 4° C.; enzymes were flash-frozen and stored at −70° C. Enzymatic activity of frozen protein preparations was stable for at least 10 months and up to 5 freeze/thaw cycles. Purity and physical integrity of proteins were assessed using SDS-polyacrylamide gel electrophoresis (SDS-PAGE) followed by coomassie blue staining. Protein concentration was estimated by Bradford assay (Bio-Rad Protein Assay™) using bovine serum albumin as a standard.
Candidate MRSA PK inhibitors were assayed for their ability to inhibit enzymatic activities of MRSA and human PKs. PK activity was determined using a continuous assay coupled to lactate dehydrogenase (LDH) in which the change in absorbance at 340 nm owing to oxidation of NADH was measured using a Benchmark Plus™ microplate spectrophotometer (Bio-Rad Laboratories, Hercules, Calif.). […] Reactions were initiated by the addition of 15 nM of one of the PK enzymes. PK activity proportional to the rate of change at 340 nm was expressed as specific activity (μmol/min/mg), which is defined as the amount of PK that catalyzes the formation of one micromole of either product per minute. Inhibitors were dissolved in DMSO with the final concentration of the solvent never exceeding 1% of the assay volume. IC50 values were calculated by curve fitting on a four-parameter dose-response model with variable slope using Graphpad Prism 5.0™ (GraphPad™ Software Inc., La Jolla, Calif.). In all studies, less than 10% of total PEP was exhausted during the reaction. Reactions were performed at 30° C. for up to 5 min. All values determined represent at least two measurements, in triplicate (Tables 1-6) or duplicate unless mentioned otherwise. […]

The next test has as its system S. aureus (ATCC29213). The experiment in a line: In vitro susceptibility, broth microdilution (MIC). It counts as cell-based. The conditions noted are these: Staphylococcus aureus; S. aureus ATCC29213; 18-24 h, 37 C; read-out: Antimicrobial activity (MIC) S. aureus ATCC29213. A digest of the protocol:
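CLSI 2-fold serial broth microdilution; K. pneumoniae C238 grown in L-broth, S. aureus ATCC 29213 in Mueller Hinton broth, plates incubated 18–24 h at 37 °C. MIC taken as lowest concentration giving complete growth inhibition by OD600 versus compound-free wells, background-subtracted.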

In general, IC50 refers to the midpoint of a concentration-inhibition curve. As usually defined, the MIC is the smallest concentration in the dilution series that meets the test's criterion for growth inhibition.

T1 sequence (Q6GG09 whole entry): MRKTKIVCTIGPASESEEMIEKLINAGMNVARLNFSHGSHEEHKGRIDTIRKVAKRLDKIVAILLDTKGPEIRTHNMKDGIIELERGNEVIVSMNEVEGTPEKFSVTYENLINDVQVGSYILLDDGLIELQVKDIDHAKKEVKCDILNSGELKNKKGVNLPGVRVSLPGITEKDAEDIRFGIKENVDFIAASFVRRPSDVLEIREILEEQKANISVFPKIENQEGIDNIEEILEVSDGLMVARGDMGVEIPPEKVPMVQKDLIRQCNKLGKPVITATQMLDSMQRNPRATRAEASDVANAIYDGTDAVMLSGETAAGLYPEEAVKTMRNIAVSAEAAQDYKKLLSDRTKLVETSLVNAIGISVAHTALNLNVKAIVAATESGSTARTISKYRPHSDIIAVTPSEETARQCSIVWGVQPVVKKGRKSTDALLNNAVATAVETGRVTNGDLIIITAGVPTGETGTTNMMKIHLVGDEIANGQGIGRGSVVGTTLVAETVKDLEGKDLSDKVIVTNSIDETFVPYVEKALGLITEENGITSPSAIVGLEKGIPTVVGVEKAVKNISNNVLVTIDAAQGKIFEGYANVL

On MRSA Pyk, `O=C(NCc1ccccc1)c1c(/C=C/c2ccc(Cl)cc2)[nH]c2cc(Br)ccc12` [Compound 27, (E)-N-Benzyl-6-bromo-2-(4-chlorostyryl)-1H-indole-3-carboxamide] gave an IC50 below 100 nM. The MIC with S. aureus (ATCC29213) is above 64 µg/mL.
Take `OC(c1c(/C=C/c2ccc(Cl)cc2)[nH]c2cc(Br)ccc12)C(F)(F)F` (stereo not shown) [Compound 16, (E)-1-(6-Bromo-2-(4-chlorostyryl)-1H-indol-3-yl)-2,2,2-trifluoroethanol]: on MRSA Pyk, the IC50 is below 100 nM. The MIC with S. aureus (ATCC29213) worked out at 1 µg/mL (≈ 2.32 µM).
For the molecule `O=C(O)CCC(=O)N1CCN(CCNC(=O)c2c(/C=C/c3ccc(Cl)cc3)[nH]c3cc(Br)ccc23)CC1` [Compound 59, (E)-4-(4-(2-(6-Bromo-2-(4-chlorostyryl)-1H-indole-3-carboxamido)ethyl)piperazin-1-yl)-4-oxobutanoic Acid], at MRSA Pyk, the IC50 was 100 to 1000 nM. The MIC in the test on S. aureus (ATCC29213) was above 64 µg/mL.
`NS(=O)(=O)c1c(CCc2ccc(Cl)cc2)[nH]c2cc(Br)ccc12` [Compound 70, 6-Bromo-2-(4-chlorophenethyl)-1H-indole-3-sulfonamide]: the IC50 against MRSA Pyk was above 1000 nM. In the test with S. aureus (ATCC29213), the MIC is above 64 µg/mL.
For the molecule `O=C(Nc1ccc(Cl)cc1)c1[nH]c2cc(Br)ccc2c1C(=O)NCCN1CCNCC1` [Compound 80, 6-Bromo-N2-(4-chlorophenyl)-N3-(2-(piperazin-1-yl)ethyl)-1H-indole-2,3-dicarboxamide], the IC50 at MRSA Pyk was below 100 nM. In addition, the MIC with S. aureus (ATCC29213) was above 64 µg/mL.
The molecule `ON=C(c1c(/C=C/c2ccc(Cl)cc2)[nH]c2cc(Br)ccc12)C(F)(F)F` (racemic) [Compound 19, 1-(6-Bromo-2-(4-chlorostyryl)-1H-indol-3-yl)-2,2,2-trifluoroethanone Oxime] came in with an IC50 against MRSA Pyk of 100 to 1000 nM. Besides, in the test on S. aureus (ATCC29213), the MIC was 0.5 µg/mL (≈ 1.13 µM).
As to `CN(C)C(=O)c1c(CCc2ccc(Cl)cc2)[nH]c2cc(Br)ccc12` [Compound 50, 6-Bromo-2-(4-chlorophenethyl)-N,N-dimethyl-1H-indole-3-carboxamide], the IC50 against MRSA Pyk was above 1000 nM. For the same molecule, in the test on S. aureus (ATCC29213), the minimal inhibitory concentration (MIC) was above 64 µg/mL.
As to `O=C(O)CCNC(=O)c1c(/C=C/c2ccc(Cl)cc2)[nH]c2cc(Br)ccc12` [Compound 39, (E)-3-(6-Bromo-2-(4-chlorostyryl)-1H-indole-3-carboxamido)propanoic Acid], the IC50 against MRSA Pyk was below 100 nM. Further, the MIC in the test with S. aureus (ATCC29213) was above 64 µg/mL.
Consider `O=C(O)CNC(=O)c1c(/C=C/c2ccc(Cl)cc2)[nH]c2cc(Br)ccc12` [Compound 38, (E)-2-(6-Bromo-2-(4-chlorostyryl)-1H-indole-3-carboxamido)acetic Acid], for which, on MRSA Pyk, the IC50 was below 100 nM. In addition, the minimum inhibitory concentration (MIC) in the test with S. aureus (ATCC29213) was above 64 µg/mL.
On MRSA Pyk, `O=C(NCCN1CCN(C(=O)CO)CC1)c1c(/C=C/c2ccc(Cl)cc2)[nH]c2cc(Br)ccc12` [Compound 58, (E)-6-Bromo-2-(4-chlorostyryl)-N-(2-(4-(2-hydroxyacetyl)piperazin-1-yl)ethyl)-1H-indole-3-carboxamide] showed an IC50 below 100 nM. The MIC with S. aureus (ATCC29213) was above 64 µg/mL.
Turning to `FC(F)(F)c1c(/C=C/c2ccc(Cl)cc2)[nH]c2cc(Br)ccc12` [Compound 65, (E)-6-Bromo-2-(4-chlorostyryl)-3-(trifluoromethyl)-1H-indole], on MRSA Pyk, the IC50 is below 100 nM. Also, the MIC with S. aureus (ATCC29213) was found to be 1 µg/mL (≈ 2.5 µM).
For `O=C(c1c(CCc2ccc(Cl)cc2)[nH]c2cc(Br)ccc12)C1CCOCC1` [Compound 4, (6-Bromo-2-(4-chlorophenethyl)-1H-indol-3-yl)(tetrahydro-2H-pyran-4-yl)methanone] the same measures were below 100 nM and 8 µg/mL (≈ 17.9 µM).
As to `CNC(=O)c1c(CCc2ccc(Cl)cc2)[nH]c2cc(Br)ccc12` [Compound 49, 6-Bromo-2-(4-chlorophenethyl)-N-methyl-1H-indole-3-carboxamide], the IC50 against MRSA Pyk was above 1000 nM. In the test with S. aureus (ATCC29213), the MIC is above 64 µg/mL.
`CN1CCN(CCC(=O)c2c(/C=C/c3cn4ccccc4n3)[nH]c3cc(Br)ccc23)CC1` [Compound 8, (E)-1-(6-Bromo-2-(2-(imidazo[1,2-a]pyridin-2-yl)vinyl)-1H-indol-3-yl)-3-(4-methylpiperazin-1-yl)propan-1-one]: the IC50 at MRSA Pyk fell in the range of 100 to 1000 nM. Moreover, in the test on S. aureus (ATCC29213), the MIC worked out at 64 µg/mL (≈ 130 µM).
`CC(C)(C)OC(=O)N1CCN(CCNC(=O)c2c(/C=C/c3ccc(Cl)cc3)[nH]c3cc(Br)ccc23)CC1` [Compound 33, (E)-tert-Butyl 4-(2-(6-bromo-2-(4-chlorostyryl)-1H-indole-3-carboxamido)ethyl)piperazine-1-carboxylate] came in with an IC50 at MRSA Pyk above 1000 nM. The MIC with S. aureus (ATCC29213) is above 64 µg/mL.
The molecule `FC(F)(F)c1c(CCc2ccc(Cl)cc2)[nH]c2cc(Br)ccc12` [Compound 66, 6-Bromo-2-(4-chlorophenethyl)-3-(trifluoromethyl)-1H-indole] displayed a half-inhibitory concentration (IC50) against MRSA Pyk of 100 to 1000 nM. Further, in the test on S. aureus (ATCC29213), the minimum inhibitory concentration (MIC) is 2 µg/mL (≈ 4.97 µM).
`O=C(OCCN1CCOCC1)c1c(/C=C/c2ccc(Cl)cc2)[nH]c2cc(Br)ccc12` [Compound 62, 2-Morpholinoethyl (E)-6-bromo-2-(4-chlorostyryl)-1H-indole-3-carboxylate] displayed an IC50 on MRSA Pyk of 100 to 1000 nM. In addition, the MIC in the test with S. aureus (ATCC29213) is above 64 µg/mL.
For `O=C(NCCN1CCN(C(=O)CCC(=O)N2CCN(CCNC(=O)c3c(/C=C/c4ccc(Cl)cc4)[nH]c4cc(Br)ccc34)CC2)CC1)c1c(/C=C/c2ccc(Cl)cc2)[nH]c2cc(Br)ccc12` [Compound 55, (E)-N,N′-((4,4′-succinylbis(piperazine-4,1-diyl))bis(ethane-2,1-diyl))bis(6-bromo-2-((E)-4-chlorostyryl)-1H-indole-3-carboxamide)] the same measures were above 1000 nM and above 64 µg/mL.
In turn, `O=C(c1c(-c2cc3ccccc3s2)[nH]c2cc(Br)ccc12)N1CCOCC1` [Compound 75] came in with an IC50 on MRSA Pyk above 1000 nM. Moreover, in the test with S. aureus (ATCC29213), the MIC is above 64 µg/mL.
For `NC(=NO)c1c(/C=C/c2ccc(Cl)cc2)[nH]c2cc(Br)ccc12` [Compound 68, 6-Bromo-2-((E)-4-chlorostyryl)-N′-hydroxy-1H-indole-3-carboximidamide] the same measures were below 100 nM and 8 µg/mL (≈ 20.5 µM).
Consider `O=C(NC1CN2CCC1CC2)c1c(/C=C/c2ccc(Cl)cc2)[nH]c2cc(Br)ccc12` (stereo not shown) [Compound 26, (E)-6-Bromo-2-(4-chlorostyryl)-N-(quinuclidin-3-yl)-1H-indole-3-carboxamide], for which the IC50 against MRSA Pyk lay in the range of 100 to 1000 nM. Moreover, in the test with S. aureus (ATCC29213), the MIC came to 8 µg/mL (≈ 16.5 µM).
For `OC(c1c(CCc2ccc(Cl)cc2)[nH]c2cc(Br)ccc12)(C(F)(F)F)C(F)(F)F` [Compound 14, 2-(6-Bromo-2-(4-chlorophenethyl)-1H-indol-3-yl)-1,1,1,3,3,3-hexafluoropropan-2-ol], at MRSA Pyk, the IC50 lay in the range of 100 to 1000 nM. In the test with S. aureus (ATCC29213), the MIC is 1 µg/mL (≈ 2 µM).
The molecule `CC(C)(C)OC(=O)N1CCN(CCNC(=O)c2c(C(=O)Nc3ccc(Cl)cc3)[nH]c3cc(Br)ccc23)CC1` [Compound 78, tert-Butyl 4-(2-(6-bromo-2-((4-chlorophenyl)carbamoyl)-1H-indole-3-carboxamido)ethyl)piperazine-1-carboxylate] gave an IC50 against MRSA Pyk below 100 nM. In addition, in the test on S. aureus (ATCC29213), the MIC is above 64 µg/mL.
